Values joined by “and” are separate entries in the source; they are usually repeats but may differ in a detail not shown here. Identical values can stand only once. ± gives the expanded uncertainty stated by the source.
Key:
[1] = molar heat capacity at constant pressure; settings: 100 kPa, Liquid, Extra sensitive DSC
[2] = Liquid, Closed cell (Static) method

CCN1CCOCC1 [4-ethylmorpholine]
molar heat capacity at constant pressure ([1]; 270 K): 198.1 ± 7.7 J/K/mol
molar heat capacity at constant pressure ([1]; 275 K): 199.6 ± 7.7 J/K/mol
molar heat capacity at constant pressure ([1]; 280 K): 201.1 ± 7.8 J/K/mol
molar heat capacity at constant pressure ([1]; 285 K): 202.8 ± 7.9 J/K/mol
molar heat capacity at constant pressure ([1]; 290 K): 204.5 ± 7.9 J/K/mol
molar heat capacity at constant pressure ([1]; 295 K): 206.4 ± 8 J/K/mol
molar heat capacity at constant pressure ([1]; 300 K): 208.2 ± 8.1 J/K/mol
molar heat capacity at constant pressure ([1]; 305 K): 209.9 ± 8.1 J/K/mol
molar heat capacity at constant pressure ([1]; 310 K): 211.6 ± 8.2 J/K/mol
molar heat capacity at constant pressure ([1]; 315 K): 213.4 ± 8.3 J/K/mol
molar heat capacity at constant pressure ([1]; 320 K): 215.5 ± 8.3 J/K/mol
molar heat capacity at constant pressure ([1]; 325 K): 217.7 ± 8.4 J/K/mol
molar heat capacity at constant pressure ([1]; 330 K): 219.9 ± 8.5 J/K/mol
molar heat capacity at constant pressure ([1]; 335 K): 221.9 ± 8.6 J/K/mol
molar heat capacity at constant pressure ([1]; 340 K): 223.8 ± 8.7 J/K/mol
molar heat capacity at constant pressure ([1]; 345 K): 225.9 ± 8.7 J/K/mol
molar heat capacity at constant pressure ([1]; 350 K): 228 ± 8.8 J/K/mol
molar heat capacity at constant pressure ([1]; 355 K): 230.2 ± 8.9 J/K/mol
vapor or sublimation pressure ([2]; 243.11 K): 0.01727 ± 0.00058 kPa
vapor or sublimation pressure ([2]; 243.12 K): 0.01728 ± 0.00058 kPa and 0.01725 ± 0.00058 kPa
vapor or sublimation pressure ([2]; 248.15 K): 0.0276 ± 0.00074 kPa and 0.02761 ± 0.00074 kPa
vapor or sublimation pressure ([2]; 253.15 K): 0.0431 ± 0.00099 kPa and 0.04308 ± 0.00099 kPa
vapor or sublimation pressure ([2]; 253.16 K): 0.04305 ± 0.00098 kPa
vapor or sublimation pressure ([2]; 258.15 K): 0.06592 ± 0.0013 kPa
vapor or sublimation pressure ([2]; 258.16 K): 0.06592 ± 0.0013 kPa and 0.06589 ± 0.0013 kPa
vapor or sublimation pressure ([2]; 263.16 K): 0.09902 ± 0.0019 kPa and 0.09898 ± 0.0019 kPa and 0.09893 ± 0.0019 kPa
vapor or sublimation pressure ([2]; 268.16 K): 0.1459 ± 0.0022 kPa and 0.146 ± 0.0022 kPa
vapor or sublimation pressure ([2]; 273.17 K): 0.2112 ± 0.0027 kPa and 0.2111 ± 0.0027 kPa
vapor or sublimation pressure ([2]; 278.16 K): 0.3025 ± 0.0035 kPa
vapor or sublimation pressure ([2]; 278.17 K): 0.3027 ± 0.0035 kPa and 0.3026 ± 0.0035 kPa
vapor or sublimation pressure ([2]; 283.17 K): 0.4244 ± 0.0046 kPa and 0.4243 ± 0.0046 kPa
vapor or sublimation pressure ([2]; 288.17 K): 0.5882 ± 0.0061 kPa and 0.5883 ± 0.0061 kPa and 0.5881 ± 0.0061 kPa
vapor or sublimation pressure ([2]; 293.16 K): 0.8046 ± 0.008 kPa and 0.8045 ± 0.008 kPa
vapor or sublimation pressure ([2]; 298.17 K): 1.086 ± 0.01 kPa and 1.085 ± 0.01 kPa

Source: the NIST ThermoML archive (doi:10.1021/acs.jced.8b01159)
